Experimental findings from patent publication US10800782B2, “Inhibitors of cellular metabolic processes” (Agios Pharmaceuticals, Inc., priority 2016, dated 2020) are described below.

For this assay, the target named is T1, MAT2A (Homo sapiens, UniProt P31153).
T1 construct: His6; made in house; host or cells: SF9 insect cells
As to the kind of experiment: MAT2A biochemical assay (colorimetric inorganic phosphate detection, PiColorLock). Particulars: recombinant His6-tagged MAT2A 1 μg/ml; 60 minutes preincubation at 25° C.; L-Met 80 μM, ATP 100 μM; 60 minutes reaction; read at 623 nm; read-out: MAT2A Inhibition Score. The method in brief:
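His6-tagged human MAT2A (SF9-expressed, 1 μg/ml) converting L-Met and ATP to SAM in Tris pH 8.0, 50 mM KCl, 15 mM MgCl2, 300 uM EDTA, 0.005% BSA; 60 min at room temperature. Released phosphate detected colorimetrically with malachite green phosphomolybdate. Ten-point, three-fold compound dilution series.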

Some results are limits rather than exact numbers.

T1 sequence (P31153 whole entry): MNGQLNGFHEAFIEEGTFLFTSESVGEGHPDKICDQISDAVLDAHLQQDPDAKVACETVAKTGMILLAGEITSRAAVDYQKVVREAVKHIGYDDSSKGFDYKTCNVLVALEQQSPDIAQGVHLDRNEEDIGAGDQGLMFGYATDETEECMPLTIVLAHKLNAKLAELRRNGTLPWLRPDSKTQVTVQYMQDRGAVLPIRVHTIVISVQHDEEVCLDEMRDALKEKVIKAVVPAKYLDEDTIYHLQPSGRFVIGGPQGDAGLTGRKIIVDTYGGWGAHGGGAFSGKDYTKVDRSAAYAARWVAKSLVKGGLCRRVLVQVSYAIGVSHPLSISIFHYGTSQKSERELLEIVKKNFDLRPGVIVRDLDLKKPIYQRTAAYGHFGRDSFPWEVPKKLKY

Turning to `COc1ccc(-c2c(Nc3ccncc3)[nH]c3c(C4=CCCCC4)c(-c4ccccc4)nn3c2=O)cc1` [Compound 297, 3-(cyclohex-1-en-1-yl)-6-(4-methoxyphenyl)-2-phenyl-5-(pyridin-4-ylamino)pyrazolo[1,5-a]pyrimidin-7(4H)-one], the IC50 was less than 100 nM.

As for `Cc1[nH]c2c(N3CCCCC3)c(-c3ccccc3)nn2c(=O)c1C1CC1` [Compound 298, 6-cyclopropyl-5-methyl-2-phenyl-3-(piperidin-1-yl)pyrazolo[1,5-a]pyrimidin-7(4H)-one], the IC50 fell in the range of 100 to 1000 nM.

As to `Cc1[nH]c2c(N3CCCCC3)c(-c3ccccc3)nn2c(=O)c1C1CCCC1` [Compound 300, 6-cyclopentyl-5-methyl-2-phenyl-3-(piperidin-1-yl)pyrazolo[1,5-a]pyrimidin-7(4H)-one], the IC50 fell in the range of 100 to 1000 nM.

For the compound `Cc1[nH]c2c(N3CCCCC3)c(-c3ccccc3)nn2c(=O)c1-c1cccc(N)c1` [Compound 301, 6-(3-aminophenyl)-5-methyl-2-phenyl-3-(piperidin-1-yl)pyrazolo[1,5-a]pyrimidin-7(4H)-one], the IC50 lay within 100 to 1000 nM.

For the compound `Cc1[nH]c2c(N3CCCCC3)c(-c3ccccc3)nn2c(=O)c1N1CCOCC1` [Compound 302, 5-methyl-6-morpholino-2-phenyl-3-(piperidin-1-yl)pyrazolo[1,5-a]pyrimidin-7(4H)-one], the IC50 lay in the range of 100 to 1000 nM.

Take `Cc1[nH]c2c(N3CCCCC3)c(-c3ccccc3)nn2c(=O)c1-c1cc[nH]c(=O)c1` [Compound 303, 5-methyl-6-(2-oxo-1,2-dihydropyridin-4-yl)-2-phenyl-3-(piperidin-1-yl)pyrazolo[1,5-a]pyrimidin-7(4H)-one]: the IC50 was in the range of 1000 to 10000 nM.

`Cc1[nH]c2c(N3CCCCC3)c(-c3ccccc3)nn2c(=O)c1-c1ccncc1` [Compound 304, 5-methyl-2-phenyl-3-(piperidin-1-yl)-6-(pyridin-4-yl)pyrazolo[1,5-a]pyrimidin-7(4H)-one]: the IC50 fell in the range of 100 to 1000 nM.

Regarding `Cc1[nH]c2c(N3CCCCC3)c(-c3ccccc3)nn2c(=O)c1-c1ccc(C(N)=O)cc1` [Compound 305, 4-(5-methyl-7-oxo-2-phenyl-3-(piperidin-1-yl)-4,7-dihydropyrazolo[1,5-a]pyrimidin-6-yl)benzamide], the IC50 was 100 to 1000 nM.

Turning to `Cc1[nH]c2c(N3CCCCC3)c(-c3ccccc3)nn2c(=O)c1-c1ccc(S(C)(=O)=O)cc1` [Compound 306, 5-methyl-6-(4-(methylsulfonyl)phenyl)-2-phenyl-3-(piperidin-1-yl)pyrazolo[1,5-a]pyrimidin-7(4H)-one], the IC50 was in the range of 1000 to 10000 nM.

`Cc1[nH]c2c(N3CCCCC3)c(-c3ccccc3)nn2c(=O)c1-c1ccc(N)cc1` [Compound 307, 6-(4-aminophenyl)-5-methyl-2-phenyl-3-(piperidin-1-yl)pyrazolo[1,5-a]pyrimidin-7(4H)-one]: the IC50 is 100 to 1000 nM.

Regarding `CC(=O)Nc1ccc(-c2c(C)[nH]c3c(N4CCCCC4)c(-c4ccccc4)nn3c2=O)cc1` [Compound 308, N-(4-(5-methyl-7-oxo-2-phenyl-3-(piperidin-1-yl)-4,7-dihydropyrazolo[1,5-a]pyrimidin-6-yl)phenyl)acetamide], the IC50 is 1000 to 10000 nM.

Turning to `Cc1[nH]c2c(N3CCCCC3)c(-c3ccccc3)nn2c(=O)c1-c1ccc(O)nc1` [Compound 309, 6-(6-hydroxypyridin-3-yl)-5-methyl-2-phenyl-3-(piperidin-1-yl)pyrazolo[1,5-a]pyrimidin-7(4H)-one], the IC50 was 100 to 1000 nM.

For the compound `Cc1[nH]c2c(N3CCCCC3)c(-c3ccccc3)nn2c(=O)c1-c1cscn1` [Compound 310, 5-methyl-2-phenyl-3-(piperidin-1-yl)-6-(thiazol-4-yl)pyrazolo[1,5-a]pyrimidin-7(4H)-one], the IC50 is 1000 to 10000 nM.

As for `Cc1[nH]c2c(N3CCCCC3)c(-c3ccccc3)nn2c(=O)c1N1CCC(O)CC1` [Compound 311, 6-(4-hydroxypiperidin-1-yl)-5-methyl-2-phenyl-3-(piperidin-1-yl)pyrazolo[1,5-a]pyrimidin-7(4H)-one], the IC50 is 100 to 1000 nM.

For `CCc1[nH]c2c(-c3ccccc3)c(-c3ccccc3)nn2c(=O)c1-c1ccc(OC)cc1` [Compound 312, 5-ethyl-6-(4-methoxyphenyl)-2,3-diphenylpyrazolo[1,5-a]pyrimidin-7(4H)-one], the IC50 was in the range of 100 to 1000 nM.

On to `COc1ccc(-c2c(C#N)[nH]c3c(-c4ccccc4)c(-c4ccccc4)nn3c2=O)cc1` [Compound 314, 6-(4-methoxyphenyl)-7-oxo-2,3-diphenyl-4,7-dihydropyrazolo[1,5-a]pyrimidine-5-carbonitrile], for which the IC50 was 100 to 1000 nM.

For `COc1ccc(-c2c(C(N)=O)[nH]c3c(-c4ccccc4)c(-c4ccccc4)nn3c2=O)cc1` [Compound 315, 6-(4-methoxyphenyl)-7-oxo-2,3-diphenyl-4,7-dihydropyrazolo[1,5-a]pyrimidine-5-carboxamide], the IC50 is 100 to 1000 nM.

In the case of `Cc1[nH]c2c(N3CCC(F)(F)C3)c(-c3ccccc3)nn2c(=O)c1-c1ccc2ncccc2c1` [Compound 316, 3-(3,3-difluoropyrrolidin-1-yl)-5-methyl-2-phenyl-6-(quinolin-6-yl)pyrazolo[1,5-a]pyrimidin-7(4H)-one], the IC50 lay within 100 to 1000 nM.

Regarding `Cc1[nH]c2c(N3CCC(F)(F)C3)c(-c3ccccc3)nn2c(=O)c1-c1ccc2nccn2c1` [Compound 317, 3-(3,3-difluoropyrrolidin-1-yl)-6-(imidazo[1,2-a]pyridin-6-yl)-5-methyl-2-phenylpyrazolo[1,5-a]pyrimidin-7(4H)-one], the IC50 was 100 to 1000 nM.

Take `Cc1c(-c2ccc3ncccc3c2)c(=O)n2nc(-c3ccccc3)c(-c3ccccc3)c2n1C` [Compound 318, 4,5-dimethyl-2,3-diphenyl-6-(quinolin-6-yl)pyrazolo[1,5-a]pyrimidin-7(4H)-one]: the IC50 lay within 100 to 1000 nM.

With `O=c1c(-c2ccc3ncccc3c2)c(CO)[nH]c2c(-c3ccccc3)c(-c3ccccc3)nn12` [Compound 319, 5-(hydroxymethyl)-2,3-diphenyl-6-(quinolin-6-yl)pyrazolo[1,5-a]pyrimidin-7(4H)-one], the IC50 lay in the range of 100 to 1000 nM.

As to `O=c1c(-c2ccc3ncccc3c2)c(Cn2cccn2)[nH]c2c(-c3ccccc3)c(-c3ccccc3)nn12` [Compound 320, 5-((1H-pyrazol-1-yl)methyl)-2,3-diphenyl-6-(quinolin-6-yl)pyrazolo[1,5-a]pyrimidin-7(4H)-one], the IC50 is 100 to 1000 nM.

Turning to `O=c1c(-c2ccc3ncccc3c2)c(Cc2ncn[nH]2)[nH]c2c(-c3ccccc3)c(-c3ccccc3)nn12` [Compound 321, 5-((1H-1,2,4-triazol-5-yl)methyl)-2,3-diphenyl-6-(quinolin-6-yl)pyrazolo[1,5-a]pyrimidin-7(4H)-one], the IC50 was in the range of 100 to 1000 nM.

Turning to `O=C1CNC(=O)N1Cc1[nH]c2c(-c3ccccc3)c(-c3ccccc3)nn2c(=O)c1-c1ccc2ncccc2c1` [Compound 322, 3-((7-oxo-2,3-diphenyl-6-(quinolin-6-yl)-4,7-dihydropyrazolo[1,5-a]pyrimidin-5-yl)methyl)imidazolidine-2,4-dione], the IC50 lay within 1000 to 10000 nM.

Regarding `O=C1CN(Cc2[nH]c3c(-c4ccccc4)c(-c4ccccc4)nn3c(=O)c2-c2ccc3ncccc3c2)C(=O)N1` [Compound 323, 1-((7-oxo-2,3-diphenyl-6-(quinolin-6-yl)-4,7-dihydropyrazolo[1,5-a]pyrimidin-5-yl)methyl)imidazolidine-2,4-dione], the IC50 lay within 100 to 1000 nM.

For the compound `O=C1NCCN1Cc1[nH]c2c(-c3ccccc3)c(-c3ccccc3)nn2c(=O)c1-c1ccc2ncccc2c1` [Compound 324, 5-((2-oxoimidazolidin-1-yl)methyl)-2,3-diphenyl-6-(quinolin-6-yl)pyrazolo[1,5-a]pyrimidin-7(4H)-one], the IC50 lay in the range of 1000 to 10000 nM.

On to `CNC(=O)c1[nH]c2c(-c3ccccc3)c(-c3ccccc3)nn2c(=O)c1-c1ccc2ncccc2c1` [Compound 325], for which the IC50 lay in the range of 100 to 1000 nM.

On to `O=C(Nc1[nH]c2c(-c3ccccc3)c(-c3ccccc3)nn2c(=O)c1-c1ccc2ncccc2c1)C1CC1` [Compound 326, N-(7-oxo-2,3-diphenyl-6-(quinolin-6-yl)-4,7-dihydropyrazolo[1,5-a]pyrimidin-5-yl)cyclopropanecarboxamide], for which the IC50 lay within 1000 to 10000 nM.

Regarding `CCC(=O)Nc1[nH]c2c(-c3ccccc3)c(-c3ccccc3)nn2c(=O)c1-c1ccc2ncccc2c1` [Compound 327, N-(7-oxo-2,3-diphenyl-6-(quinolin-6-yl)-4,7-dihydropyrazolo[1,5-a]pyrimidin-5-yl)propionamide], the IC50 is 100 to 1000 nM.

Consider `O=C(NCc1cc[nH]n1)c1[nH]c2c(-c3ccccc3)c(-c3ccccc3)nn2c(=O)c1-c1ccc2ncccc2c1` [Compound 328, N-((1H-pyrazol-3-yl)methyl)-7-oxo-2,3-diphenyl-6-(quinolin-6-yl)-4,7-dihydropyrazolo[1,5-a]pyrimidine-5-carboxamide], for which the IC50 is 1000 to 10000 nM.

Turning to `O=C(NCCO)c1[nH]c2c(-c3ccccc3)c(-c3ccccc3)nn2c(=O)c1-c1ccc2ncccc2c1` [Compound 329, N-(2-hydroxyethyl)-7-oxo-2,3-diphenyl-6-(quinolin-6-yl)-4,7-dihydropyrazolo[1,5-a]pyrimidine-5-carboxamide], the IC50 lay in the range of 100 to 1000 nM.

`Cc1[nH]c2c(-c3ccccc3)c(-c3ccccc3)nn2c(=O)c1-c1ccc2ncnc(N)c2c1` [Compound 330, 6-(4-aminoquinazolin-6-yl)-5-methyl-2,3-diphenylpyrazolo[1,5-a]pyrimidin-7(4H)-one]: the IC50 lay within 100 to 1000 nM.

Regarding `Cc1[nH]c2c(-c3ccccc3)c(-c3ccccc3)nn2c(=O)c1-c1ccc2nccnc2c1` [Compound 331, 5-methyl-2,3-diphenyl-6-(quinoxalin-6-yl)pyrazolo[1,5-a]pyrimidin-7(4H)-one], the IC50 was 100 to 1000 nM.
